Results on 17 molecules are retold here after US20240067651A1 (Biohaven Therapeutics Ltd., priority 2019, published 2024).

Series [1] is described as follows: Stability in Simulated Gastric Fluid (SGF). Format: in vitro ADME. Further details: key: % parent compound remaining relative to 0-minute sample. Summed up:
(§1)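 Percent parent compound remaining, by LC-MS/MS against the 0-minute sample, is reported after incubation at 2 μg/mL (final) in pepsin-containing SGF at pH 1.2 or pancreatin-containing SIF at pH 6.8. Incubations run at 37° C for up to 60 minutes.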

For another series, the system named is Caco-2 monolayer. Kind of series: Caco-2 Permeability Assay. The format is in vitro ADME, human. Summed up:
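Caco-2 monolayers cultured 21 days (TEER >600 […]); test article at 10 μM in HBSS/HEPES pH 7.4 transport medium, dosed apical or basolateral, ±Pgp inhibitor. Incubated 90 min at 37 °C; both compartments quantified by LC-MS/MS. Papp (A→B, B→A), efflux ratio and % recovery calculated.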
(In general: Passage across Caco-2 layers is used to estimate intestinal permeability.)

The nature of series [2]: Stability in Simulated Intestinal Fluid (SIF). The format is in vitro ADME. Further details: key: % parent compound remaining relative to 0-minute sample. Summed up:
as §1

Another series is described as follows: Plasma Stability. The format is in vitro ADME, human. Summed up: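 Compounds incubated at 1 μM in fresh human plasma for 1 hour at 37° C, then protein-precipitated with acetonitrile/formic acid containing internal standard. Remaining parent measured by LC-MS/MS in triplicate, expressed as percent of control remaining.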
Where [3] appears, read: simulated gastric fluid, remaining at 1 h.
The mark [4] stands for this setting: simulated intestinal fluid, remaining at 1 h.
Setting [5] is: % remaining at 1 h, SGF with pepsin pH 1.2, 2 μg/mL, 37° C.
[6] abbreviates: % remaining at 1 h, SIF with pancreatin pH 6.8, 2 μg/mL, 37° C.
The mark [7] stands for this setting: % remaining at 1 h, human plasma, 1 μM, 37° C.
[8] abbreviates: % remaining after 1 h in simulated gastric fluid.
[9] abbreviates: % remaining after 1 h in simulated intestinal fluid.
Where [10] appears, read: % remaining after 1 h in human plasma.
The mark [11] stands for this setting: donor 10 μM, 90 minutes, 37° C., direction not given.
The mark [12] stands for this setting: % remaining at 1 h in simulated gastric fluid.
Setting [13] is: % remaining at 1 h in simulated intestinal fluid.
Where [14] appears, read: % remaining at 1 h in human plasma.

Bounds are passed on as bounds.

Turning to “(2R)-2-{[(tert-butoxy)carbonyl]amino}-4-methyl-N-[2-(2-{[{{4-oxo-1-[2-(propan-2-yloxy)ethyl]-2-sulfanylidene-1H,2H,3H,4H,5H-pyrrolo[3,2-d]pyrimidin-5-yl}methoxy)carbonyl]oxy}ethoxy)eth-yl]pentanamide [Example 385]”, the SGF in series [1] (setting [3]) is recorded as 94% remaining. For the same molecule, in the series with Caco-2 monolayer (Caco-2 monolayer), the “Caco-2 Papp” value was 3.87 ×10⁻⁶ cm/s. Besides, the SIF in series [2] (setting [4]) is reported as 84% remaining. In addition, the “human Plasma stability” value in “Plasma Stability” (human plasma, remaining at 1 h) is recorded as 1% remaining.
For `CC(C)OCCn1c(SCOC(=O)[C@H](N)Cc2ccccc2)nc(=O)c2c1ccn2COC(=O)[C@H](N)Cc1ccccc1.O=C(O)C(F)(F)F.O=C(O)C(F)(F)F` [Example 312, bis(trifluoroacetic acid) {[5-({[(2R)-2-amino-3-phenylpropanoyl]oxy}methyl)-4-oxo-1-[2-(propan-2-yloxy)ethyl]-1H,4H,5H-pyrrolo[3,2-d]pyrimidin-2-yl]sulfanyl} methyl (2R)-2-amino-3-phenylpropanoate], the SGF in series [1] (% remaining @ 1 h) is 99% @ 1 h. In addition, the “Caco-2 Papp” value in the series with Caco-2 monolayer (Caco-2) is above 0.0994 ×10⁻⁶ cm/s. Also, in series [2] (% remaining @ 1 h), the SIF is reported as 29% @ 1 h. The “human Plasma stability” value in “Plasma Stability” (% remaining @ 1 h) is 24% @ 1 h.
As to `COCCOCCOC(=O)OCn1c(=O)c2c(ccn2COC(=O)OCCOCCOC)n(CCOC(C)C)c1=S` [Example 106, {3-[{{[2-(2-methoxyethoxy)ethoxy]carbonyl}oxy)methyl]-4-oxo-1-[2-(propan-2-yloxy)ethyl]-2-sulfanylidene-1H,2H,3H,4H,5H-pyrrolo[3,2-d]pyrimidin-5-yl} methyl 2-(2-methoxyethoxy)ethyl carbonate], the SGF in series [1] (setting [5]) is 100%. For the same molecule, in the series with Caco-2 monolayer (unit inferred), the Caco-2 Papp is 13.9 ×10⁻⁶ cm/s. Moreover, the SIF in series [2] (setting [6]) was 1%. Further, the “human Plasma stability” value in “Plasma Stability” (setting [7]) worked out at 2%.
As to “{4-oxo-1-[2-(propan-2-yloxy)ethyl]-2-sulfanylidene-1H,2H,3H,4H,5H-pyrrolo [3,2-d]pyrimidin-5-yl}methyl 2-[(2S)-2-(benzoyloxy)-N,3-dimethylbutanamido]acetate [Example 401]”, the SGF in series [1] (setting [8]) is on record as 90% remaining. In addition, in the series with Caco-2 monolayer (Caco-2 monolayer), the “Caco-2 Papp” value turned out to be 0.43 ×10⁻⁶ cm/s. In addition, the SIF in series [2] (setting [9]) is given as 8% remaining. Also, the “human Plasma stability” value in the series “Plasma Stability” (setting [10]) is 0% remaining.
For the molecule “tert-butyl 3-(2-{[{{4-oxo-1-[2-(propan-2-yloxy)ethyl]-2-sulfanylidene-1H,2H,3H,4H,5H-pyrrolo[3,2-d]pyrimidin-5-yl}methoxy)carbonyl]oxy}eth-oxy)propanoate [Example 392]”, in series [1] (setting [3]), the SGF is 95% remaining. For the same molecule, the “Caco-2 Papp” value in the series with Caco-2 monolayer (Caco-2 monolayer) is 0.12 ×10⁻⁶ cm/s. Also, the SIF in series [2] (setting [4]) is on record as 71% remaining. The “human Plasma stability” value in “Plasma Stability” (human plasma, remaining at 1 h) is on record as 1% remaining.
With `CC(C)OCCn1c(SCOC(=O)N(C)Cc2ccccc2)nc(=O)c2c1ccn2COC(=O)N(C)Cc1ccccc1.O=C(O)C(F)(F)F` [Example 174, trifluoroacetic acid {2-[{{[benzyl(methyl)carba-moyl]oxy}methyl)sulfanyl]-4-oxo-1-[2-(propan-2-yloxy)ethyl]-1H,4H,5H-pyrrolo[3,2-d]pyrimidin-5-yl}methyl N-benzyl-N-methylcarbamate], the SGF in series [1] (% @ 1 h (remaining) in simulated gastric fluid) was 99% @ 1 h. Besides, the “Caco-2 Papp” value with Caco-2 monolayer (Caco-2 monolayer) was 30.4 ×10⁻⁶ cm/s. Further, in series [2] (% @ 1 h (remaining) in simulated intestinal fluid), the SIF is 99% @ 1 h. Moreover, the “human Plasma stability” value in “Plasma Stability” (% @ 1 h (remaining) in human plasma) is listed as 99% @ 1 h.
Regarding `CC(C)OCCn1c(=S)[nH]c(=O)c2c1ccn2C(=O)NCCOCCNC(=O)[C@H](NC(=O)OC(C)(C)C)C(C)C` [Example 378, tert-butyl N-[(1R)-2-methyl-1-({2-[2-({4-oxo-1-[2-(propan-2-yloxy)ethyl]-2-sulfanylidene-1H,2H,3H,4H,5H-pyrrolo[3,2-d]pyrimidine-5-carbonyl}amino)ethoxy]ethyl}carba-moyl)propyl]carbamate], the SGF in series [1] (simulated gastric fluid, bare number, unit or time not given) is given as 98. Also, the “Caco-2 Papp” value with Caco-2 monolayer (Caco-2 monolayer) is 0.0903 ×10⁻⁶ cm/s. The SIF in series [2] (simulated intestinal fluid, bare number, unit or time not given) was 96. Besides, the “human Plasma stability” value in “Plasma Stability” (human plasma, remaining at 1 h) was determined as 93% remaining.
With `COc1ccc(N(C)C(=O)OCSc2nc(=O)c3[nH]ccc3n2CCOC(C)C)cc1` [Example 254], in series [1] (simulated gastric fluid, at 1 h), the SGF was 95% remaining. Further, the “Caco-2 Papp” value in the series with Caco-2 monolayer (Caco-2 monolayer) was found to be 8.53 ×10⁻⁶ cm/s. Also, the SIF in series [2] (simulated intestinal fluid, at 1 h) is 94% remaining. The “human Plasma stability” value in “Plasma Stability” (human plasma, at 1 h) is on record as 88% remaining.
On to `CC(C)OCCn1c(=S)[nH]c(=O)c2c1ccn2COC(=O)[C@H]1CCCN1C(=O)OCC1c2ccccc2-c2ccccc21` [Example 5, 1-(9H-fluoren-9-ylmethyl) 2-{4-oxo-1-[2-(propan-2-yloxy)ethyl]-2-sulfanylidene-1H, 2H,3H,4H,5H-pyrrolo[3,2-d]pyrimidin-5-yl}methyl(2R)-pyrrolidine-1,2-dicarboxylate], for which the SGF in series [1] (setting [5]) was 90%. For the same molecule, the “Caco-2 Papp” value in the series on Caco-2 monolayer (setting [11]) stood at 14 ×10⁻⁶ cm/s. Besides, the SIF in series [2] (setting [6]) is 76%. Further, the “human Plasma stability” value in the series “Plasma Stability” (setting [7]) is on record as 97%.
Take “5-[{[4-(carbamoyloxy)butoxy]carbon-yl}oxy)methyl]-1-[2-(propan-2-yloxy)ethyl]-2-sulfanylidene-1H,2H,3H,4H,5H-pyrrolo[3,2-d]pyrimidin-4-one [Example 411]”: in series [1] (setting [8]), the SGF is given as 92% remaining. The “Caco-2 Papp” value in the series on Caco-2 monolayer (Caco-2 monolayer) was below 0.107 ×10⁻⁶ cm/s. Also, the SIF in series [2] (setting [9]) is given as 22% remaining. The “human Plasma stability” value in “Plasma Stability” (setting [10]) was found to be 1% remaining.
In the case of `CSCC[C@H](N)C(=O)NCCC(=O)OCn1ccc2c1c(=O)[nH]c(=S)n2CCOC(C)C.O=C(O)C(F)(F)F` [Example 32, trifluoroacetic acid {4-oxo-1-[2-(propan-2-yloxy)ethyl]-2-sulfanylidene-1H,2H,3H,4H,5H-pyrrolo [3,2-d]pyrimidin-5-yl} methyl 3-[(2S)-2-amino-4-(methylsulfanyl)butanamido]propanoate], in series [1] (setting [12]), the SGF was 97% remaining. Also, the “Caco-2 Papp” value in the series on Caco-2 monolayer (Caco-2 monolayer) was 0.147 ×10⁻⁶ cm/s. Besides, the SIF in series [2] (setting [13]) is given as 33% remaining. For the same molecule, the “human Plasma stability” value in “Plasma Stability” (setting [14]) worked out at 17% remaining.
Regarding `CC(C)OCCn1c(SCOC(=O)OCCOCCN)nc(=O)c2c1ccn2COC(=O)OCCOCCN.O=C(O)C(F)(F)F.O=C(O)C(F)(F)F` [Example 124], the SGF in series [1] (setting [12]) is recorded as 67% remaining. For the same molecule, in the series on Caco-2 monolayer (Caco-2 monolayer), the “Caco-2 Papp” value was determined as 1.18 ×10⁻⁶ cm/s. The SIF in series [2] (setting [13]) was 57% remaining. The “human Plasma stability” value in the series “Plasma Stability” (setting [14]) came to 28% remaining.
In the same order, the values of `CC(C)OCCn1c(=S)[nH]c(=O)c2c1ccn2COC(=O)CCCCNC(=O)CN.O=C(O)C(F)(F)F` [Example 15, trifluoroacetic acid {4-oxo-1-[2-(propan-2-yloxy)ethyl]-2-sulfanylidene-1H,2H,3H,4H,5H-pyrrolo[3,2-d]pyrimidin-5-yl} methyl 5-(2-aminoacetamido)pentanoate] are 100%, above 0.567 ×10⁻⁶ cm/s, 4% remaining and 9% remaining.
Regarding “(2R)-2-{[(tert-butoxy)carbonyl]amino}-N-[2-(2-{[{{4-oxo-1-[2-(propan-2-yloxy)ethyl]-2-sulfanylidene-1H,2H,3H,4H,5H-pyrrolo[3,2-d]pyrimidin-5-yl}methoxy)carbonyl]oxy}ethoxy)eth-yl]-3-phenylpropanamide [Example 387]”, the SGF in series [1] (setting [3]) was 92% remaining. For the same molecule, the “Caco-2 Papp” value with Caco-2 monolayer (Caco-2 monolayer) came to 4.5 ×10⁻⁶ cm/s. Also, in series [2] (setting [4]), the SIF was 75% remaining. The “human Plasma stability” value in “Plasma Stability” (human plasma, remaining at 1 h) was found to be 1% remaining.
As for “17-[2-(propan-2-yloxy)ethyl]-16-sulfanylidene-3,5,8,11,13-pentaoxa-1,15,17-triazatricyclo[13.5.2.0^{18,21}]docosa-18(21),19-diene-4,12,22-trione [Example 404]”, the SGF in series [1] (setting [8]) was 92% remaining. Besides, the “Caco-2 Papp” value in the series on Caco-2 monolayer (Caco-2 monolayer) stood at 5.08 ×10⁻⁶ cm/s. For the same molecule, in series [2] (setting [9]), the SIF was 86% remaining. Also, the “human Plasma stability” value in “Plasma Stability” (setting [10]) is 77% remaining.
Regarding “5-{[2-({[(5-{[(2S)-2-{[(tert-butoxy)carbonyl]amino}-4-methylpentanoyl]oxy}penta-noyl)oxy]methyl}sulfanyl)-4-oxo-1-[2-(propan-2-yloxy)ethyl]-1H,4H,5H-pyrrolo[3,2-d]pyrimidin-5-yl]methoxy}-5-oxopentyl (2S)-2-{[(tert-butoxy)carbonyl]amino}-4-methylpentanoate [Example 343]”, in series [1] (% remaining @ 1 h), the SGF is reported as 82% remaining. Moreover, in the series on Caco-2 monolayer (Caco-2), the “Caco-2 Papp” value was found to be 4.67 ×10⁻⁶ cm/s. In addition, the SIF in series [2] (% remaining @ 1 h) is given as 29% remaining. Further, in the series “Plasma Stability” (% remaining @ 1 h), the “human Plasma stability” value amounted to 1% remaining.
Consider `CC(C)OCCn1c(=S)[nH]c(=O)c2c1ccn2COC(=O)[C@H]1CCCN1C(=O)OC(C)(C)C` [Example 3, 1-tert-butyl 2-{4-oxo-1-[2-(propan-2-yloxy)ethyl]-2-sulfanylidene-1H,2H,3H,4H,5H-pyrrolo[3,2-d]pyrimidin-5-yl} methyl (2R)-pyrrolidine-1,2-dicarboxylate], for which, in series [1] (setting [5]), the SGF was 84%. In addition, the “Caco-2 Papp” value in the series on Caco-2 monolayer (setting [11]) worked out at 41.9 ×10⁻⁶ cm/s. Also, in series [2] (setting [6]), the SIF is listed as 89%. In addition, the “human Plasma stability” value in the series “Plasma Stability” (setting [7]) is recorded as 99%.
